# Test results published in article PMC3145672, “X-Ray Structure Reveals a New Class and Provides Insight into Evolution of Alkaline Phosphatases” (PLoS ONE, 2011).
# Target: T1, SPAP (Sphingomonas sp., UniProt A1YYW7)
# T1 construct: gene phoK; recombinant in E. coli, Ni-NTA purified; precursor 559 residues, predicted signal peptide 1-19; residues 31-556 visible in crystal; active monomer, 58 kD by SEC
# T1 sequence (A1YYW7 20-559): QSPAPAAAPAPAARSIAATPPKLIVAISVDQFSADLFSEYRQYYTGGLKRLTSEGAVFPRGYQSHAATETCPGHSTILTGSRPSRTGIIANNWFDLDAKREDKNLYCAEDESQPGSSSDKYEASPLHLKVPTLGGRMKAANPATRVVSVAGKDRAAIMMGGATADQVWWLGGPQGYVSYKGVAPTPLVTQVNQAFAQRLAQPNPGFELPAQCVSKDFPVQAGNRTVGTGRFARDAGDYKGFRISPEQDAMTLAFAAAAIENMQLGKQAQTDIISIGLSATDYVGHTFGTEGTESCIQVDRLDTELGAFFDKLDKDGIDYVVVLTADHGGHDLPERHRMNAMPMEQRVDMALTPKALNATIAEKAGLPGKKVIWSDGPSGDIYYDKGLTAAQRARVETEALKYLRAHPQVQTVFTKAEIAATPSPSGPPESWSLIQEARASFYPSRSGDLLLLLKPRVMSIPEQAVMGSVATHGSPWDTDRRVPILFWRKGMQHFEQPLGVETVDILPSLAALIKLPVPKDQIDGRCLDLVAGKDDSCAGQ
# Experiment: release of pNP at […] nm
# Format: biochemical
# Details: pH 8.5, room temperature; size exclusion chromatography fraction
structure (smiles),measurement,value
O=[N+]([O-])c1ccc(OP(=O)(O)O)cc1 [pNPP],release of pNP at 405 nm,"Catalytic activity of eluted SPAP fraction was checked, at room temperature"
